Values quoted from earlier work, collected in US12156879B2, “Combining BACE1 inhibitors with mGluR agonists for Alzheimer's disease therapy” (University of Connecticut, priority 2019, dated 2024).

Tests used:
[1] = tested on: hippocampal LTP; conditions: mice treated with the BACE1 inhibitor; cited from earlier work
[2] = tested on: layer V pyramidal neurons; conditions: mice treated with the BACE1 inhibitor; cited from earlier work

Compound | hippocampal LTP [1] | spine formation in layer V pyramidal neurons [2]
C[C@@]1(c2cc(-c3cncnc3)c(F)cc2F)CCSC(N)=N1 [LY2811376] | impaired | reduced
CC#Cc1cncc(-c2cc(Cl)c(C3(C)CC(=O)N(C)C(=N)N3)s2)c1 (stereo not shown) [SCH1682496] | impaired | reduced
